From patent US20210369652A1, “Nonhormonal Unisex Contraceptives” (The Regents of the University of California, priority 2019, published 2021)
“Also recorded” adds a separate entry of the source.

Columns and labels:
human sperm = test: Human sperm basal beat frequency; format: cell-based; settings: for sperm beat frequency / motility, result in words: human sperm, 1 μM NEN
Description: (§1) A) Human sperm were purified by swim-up method and their basal beat frequency (BF, in Hz) was measured as described in (Mannowetz, N., Naidoo, N. M., Choo, S. A., Smith, J. F. & Lishko, P. V. Slol is the principal potassium channel of human spermatozoa. eLife 2, e01009, doi:10.7554/eLife.01009 (2013)) in control HS solution ((1); in the presence of vehicle control ((2); […]. X's represent the mean of the sample, and dots represent individual data points. B) Human sperm mitochondrial membrane potential (MMP) assessment. Human sperm were incubated for 15 minutes in the presence of 0.1% DMSO (vehicle control), in the presence of 1 μM NEN or 0.75 μM […]. Samples from each condition (at least 100 of sperm midpieces per condition) were then assessed for fluorescence intensity measured with 45 nM MitoRed, which is a cell membrane permeable rhodamine-based dye. MitoRed localizes to mitochondria, and emits red fluorescence. The interaction of Mito Red with mitochondria depends on the membrane potential of the mitochondria. Uncoupled mitochondria emit less fluorescence. Data are standard boxplots, as in (A). C) Effect of sMU on human capacitated sperm hyperactivated motility. Cells were capacitated as described (11) for 4 hours. 4 μM Progesterone was added 2 minutes before imaging to trigger hyperactivation (HA). Cells were assessed as either Hyperactivated or Not Hyperactivated. N>45 cells. Error bars represent 95% CI calculated through the Wilson/Brown method.

human sperm mitochondria = test: Human sperm mitochondrial membrane potential (MMP) assessment with MitoRed; format: cell-based; settings: 15 minutes incubation, 1 μM NEN or 0.75 μM BAM15, 45 nM MitoRed fluorescence
Description: Samples from each condition (at least 100 of sperm midpieces per condition) were then assessed for fluorescence intensity measured with 45 nM MitoRed, which is a cell membrane permeable rhodamine-based dye. MitoRed localizes to mitochondria, and emits red fluorescence. The interaction of Mito Red with mitochondria depends on the membrane potential of the mitochondria. Uncoupled mitochondria emit less fluorescence. Data are standard boxplots, as in (A). C) Effect of sMU on human capacitated sperm hyperactivated motility. Cells were capacitated as described (11) for 4 hours. 4 μM Progesterone was added 2 minutes before imaging to trigger hyperactivation (HA). Cells were assessed as either Hyperactivated or Not Hyperactivated. N>45 cells. Error bars represent 95% CI calculated through the Wilson/Brown method.

human capacitated sperm = test: Hyperactivated motility of capacitated human sperm triggered by progesterone; format: cell-based; settings: capacitated 4 hours; 4 μM progesterone; concentrations as low as 1 μM
Description: as §1, with “4 μM Progesterone was added 2 minutes before imaging to trigger hyperactivation (HA).” left out, “N>45 cells.” left out

ANT = biological target: T1, ANT (Mus musculus, UniProt P48962); test: Whole-IMM patch-clamp recording of H+ current (IH) in mitoplasts; format: biochemical, mice; settings: for ANT-mediated H+ current (IH), regulators: skeletal muscle mitoplast, 2 μM AA, then 1 mM bath ADP, step from 0 to -160 mV
T1 construct: functional analysis of mitochondrial ion channels and transporters in their native membrane environment; from tissue; host or cells: heart mitoplasts (WT and ANT1-/- mice); skeletal muscle mitoplasts
T1 sequence (P48962 2-298): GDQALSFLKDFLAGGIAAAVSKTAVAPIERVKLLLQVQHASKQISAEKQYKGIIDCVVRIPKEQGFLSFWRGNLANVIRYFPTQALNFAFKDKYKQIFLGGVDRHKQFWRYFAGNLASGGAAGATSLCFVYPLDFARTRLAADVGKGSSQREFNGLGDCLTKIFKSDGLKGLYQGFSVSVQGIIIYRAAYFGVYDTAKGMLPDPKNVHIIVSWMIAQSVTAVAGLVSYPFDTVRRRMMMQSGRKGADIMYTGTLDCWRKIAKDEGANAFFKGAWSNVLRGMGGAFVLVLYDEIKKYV
Description: FIG. 3A-B is a pair of schematic diagrams depicting a mitochondrial patch-clamp. (A) Preparation of mitoplasts (vesicles of the whole IMM): (1) Isolation of mitochondria from cell lysate by centrifugation; (2) OMM removal using a low-pressure French press; (3) isolated mitoplasts in a KCl solution. Remnants of the OMM (arrow) are attached to the IMM. (B) Patch-clamp recording from mitoplasts. After formation of the gigaohm seal (mitoplast-attached configuration), the membrane patch under the pipette can be destroyed by high-amplitude voltage pulses to form a whole-mitoplast configuration for recording currents (I) across the whole IMM. Alternatively, the patch pipette can be withdrawn from the mitoplast to form an inside-out mode for recording single-channel activity.
FIG. 4 is a series of graphs (upper panels) and a schematic diagram (lower panel) showing regulators of ANT-mediated H^+ current (IH). […] Control current is shown in black. Middle panel: IH time course of the left panel. Skeletal muscle mitoplast. IH amplitudes were measured upon stepping from 0 to −160 mV. Right panel: ADP inhibition of IH in points 2 and 3. Remaining IH measured at −160 mV is shown as a percentage of control, n=8. Explanation of transient IH inhibition by cytosolic adenine nucleotides. ANT in c-state, with fatty acid (FA) anion in the translocation pathway, mediates IH (I). Cytosolic ADP^3− binds in c-state and expels FA anion/blocks translocation pathway, leading to IH inhibition (2). Upon ANT conformation change, ADP dissociates into matrix (pipette) solution (2 and 3). FA anion re-associates with ANT in m-state, restoring IH (4 and 5). Cytosolic ADP cannot inhibit IH while AAC is in m-state (5). Preliminary data from (Bertholet, A. M. Chouchani., E. T.; Kazak, L.; Angelin, A.; Fedorenko, A.; Long, J. Z.; Vidoni, S.; Garrity, R.; Cho, J.; Terada, N.; Wallace, D.C.; Spiegelman, B. M.; and Kirichok, Y. Proton Transport is an Integral Function of the Mitochondrial ADP/ATP Carrier Nature July; 571(7766):515-520 (2019)).
Right panel: IH current densities at −160 mV for WT and ANT1^−/− mitoplasts. b, Representative currents induced by 50 μM DNP in WT and ANT1^−/− mitoplasts of heart. Right panel: IH current densities induced by 50 and 200 μM DNP at −160 mV in WT and ANT1^−/− mitoplasts.
We employed direct patch-clamp recording from vesicles of the whole intact inner mitochondrial membrane (IMM; so-called mitoplasts, FIG. 3), which allow high-resolution functional analysis of mitochondrial ion channels and transporters in their native membrane environment^10,36,37. […]
We recorded DNP-induced IH in heart of ANT1-deficient mice (ANT1 is the dominant isoform of ANT in this tissue).

SMILES	sperm beat frequency / motility, result in words (human sperm)	sperm mitochondrial uncoupling (sMU) as assessed by mitochondrial depolarization (human sperm mitochondria)	hyperactivation (hyperactivated motility) (human capacitated sperm)	ANT-mediated H+ current (IH), regulators (ANT)	other results
O=C(Nc1ccc([N+](=O)[O-])cc1Cl)c1cc(Cl)ccc1O [niclosamide]	significantly decreases sperm motility	uncouple sperm mitochondria	inhibited hyperactivation	–	sperm beat frequency (human sperm; human sperm purified by swim-up, decreased from 14 Hz, concentrations as low as 1 μM): 6 Hz; sperm mitochondrial uncoupling (sMU) as assessed by mitochondrial depolarization (human sperm mitochondria; listed as Niclosamide): uncouples mitochondria
O=[N+]([O-])c1ccc(O)c([N+](=O)[O-])c1 [DNP, 2,4-dinitrophenol]	–	uncouple sperm mitochondria	–	–	proton leak (IH) via ANT induced by uncoupler (ANT; whole-IMM patch-clamp, 50 and 200 μM DNP, heart mitoplasts WT and ANT1-/-, -160 mV): strongly and specifically activates proton leak via ANT; also recorded: primarily depends on ANT
CCCCC/C=C\C/C=C\C/C=C\C/C=C\CCCC(=O)O [arachidonic acid]	–	–	–	activated	–
Nc1ncnc2c1ncn2[C@@H]1O[C@H](COP(=O)(O)OP(=O)(O)O)[C@@H](O)[C@H]1O [ADP]	–	–	–	transient inhibition	–
NCCO.O=C(Nc1ccc([N+](=O)[O-])cc1Cl)c1cc(Cl)ccc1O [NEN, niclosamide ethanolamine]	significantly decreases	uncouples human sperm mitochondria; also recorded: strong sMU	significantly decreases	–	–
C=C1[C@@H]2CC[C@H]3[C@]4(C)C[C@H](O[C@@H]5O[C@H](CO)[C@@H](OS(=O)(=O)O)[C@H](OS(=O)(=O)O)[C@H]5OC(=O)CC(C)C)CC(C(=O)O)(C(=O)O)[C@H]4CC[C@]3(C2)[C@H]1O [CATR, carboxyatractyloside]	–	–	–	–	inhibition of IH mediated by ANT (ANT; whole-IMM patch-clamp, classical ANT inhibitor): blocked
